Data taken from patent US8741961B2 (Cutech S.r.l., priority 2007, dated 2014).

What was measured:
Assay type in all cases: cell-based
[1] = test system: Human anagen hair follicles; test: Growth (elongation) of isolated human hair follicles in organ culture; conditions: for Effect on hair growth compared to other MAOI (in words): comparative experiment, Table 4
Method: Human anagen hair follicles were isolated from scalp skin and transferred for cultivation in sterile 24-well plates using a modified Williams' Medium E. Cultivation took place for nine days, while the experimental treatment of the follicles started 24 hours after the beginning of cultivation.
Hair follicles taken from a single donor were selected for the experiments after 18 h of cultivation Only follicles showing a good vital stage and a growth of not less than 0.2 mm were considered suitable to be maintained in culture. 4 groups comprising 9 follicles were prepared, plated at the density of three hair follicles/plate. […] The growth of the hair follicles was studied by microphotography and subsequently determined by image analysis. All hair follicles were photographed every two days.

[2] = test system: Human anagen hair follicles; test: Histological analysis of hair follicles (anagen/catagen phase) after 9 days of cultivation; conditions: for Hair follicles in anagen phase / Hair follicles in catagen phase: after 9 days of cultivation
Text: Subsequently, the hair follicles were subjected to a histological analysis by colouring with haematossilin and eosin in order to verify the morphological state of the dermopapilla.

[3] = test system: Human anagen hair follicles; test: Number of proliferative (Ki-67) and apoptotic (Apoptag) cells in the dermopapilla of hair follicles; conditions: for Number of cells in apoptotic state ± standard error / Number of cells in proliferative state ± standard error: after three days of cultivation, % of total cells in dermopapilla
Method: After three days of cultivation, samples were taken in order to determine the relative number of cells being in the proliferative or apoptotic state. The cells in apoptotic state were determined using an Apoptag Fluorescein In-situ Apoptosis Detection Kit (Chemicon International cod. S7110), while those in the proliferative state were marked with the antibody Ki-67 (monoclonal mouse anti-human Ki-67, clone MIB1, Dako Cytomation cod. M7240). The total number of cells in the dermopapilla was analysed by marking their nuclei by means of DAPI (4′,6-diamidino-2-phenylindol dihydrochloride). The percentage of cells in the proliferative or apoptotic state compared to the total number of cells was determined again by image analysis.

[4] = test system: Human anagen hair follicles; test: Growth (elongation) of isolated human hair follicles in organ culture; conditions: Table 1
[5] = 0.01 mM, day 1 of cultivation, Table 4 comparative experiment
[6] = 0.01 mM, day 3 of cultivation, Table 4 comparative experiment
[7] = 0.01 mM, day 5 of cultivation, Table 4 comparative experiment
[8] = 0.01 mM, day 7 of cultivation, Table 4 comparative experiment
[9] = 0.01 mM, day 9 of cultivation, Table 4 comparative experiment
[10] = 0.1 mM, day 1 of cultivation, Table 4 comparative experiment
[11] = 0.1 mM, day 3 of cultivation, Table 4 comparative experiment
[12] = 0.1 mM, day 5 of cultivation, Table 4 comparative experiment
[13] = 0.1 mM, day 7 of cultivation, Table 4 comparative experiment
[14] = 0.1 mM, day 9 of cultivation, Table 4 comparative experiment

C#CCN(C)CCCOc1ccc(Cl)cc1Cl [Chlorgyline]
Growth of hair follicles - elongation ± standard error [1, 5]: 0 mm | Growth of hair follicles - elongation ± standard error [1, 6]: 0.35 ± 0.02 mm | Growth of hair follicles - elongation ± standard error [1, 7]: 0.49 ± 0.02 mm | Growth of hair follicles - elongation ± standard error [1, 8]: 0.61 ± 0.04 mm | Growth of hair follicles - elongation ± standard error [1, 9]: 0.72 ± 0.07 mm | Growth of hair follicles - elongation ± standard error [1, 10]: 0 mm | Growth of hair follicles - elongation ± standard error [1, 11]: 0.33 ± 0.02 mm | Growth of hair follicles - elongation ± standard error [1, 12]: 0.55 ± 0.04 mm | Growth of hair follicles - elongation ± standard error [1, 13]: 0.67 ± 0.05 mm | Growth of hair follicles - elongation ± standard error [1, 14]: 0.79 ± 0.09 mm | Effect on hair growth compared to other MAOI (in words) [1]: did not exert any effect on hair growth

C#CCN(C)[C@H](C)Cc1ccccc1 [R-Selegiline]
Growth of hair follicles - elongation ± standard error [1, 5]: 0 mm | Growth of hair follicles - elongation ± standard error [1, 6]: 0.35 ± 0.02 mm | Growth of hair follicles - elongation ± standard error [1, 7]: 0.52 ± 0.03 mm | Growth of hair follicles - elongation ± standard error [1, 8]: 0.62 ± 0.05 mm | Growth of hair follicles - elongation ± standard error [1, 9]: 0.80 ± 0.06 mm | Growth of hair follicles - elongation ± standard error [1, 10]: 0 mm | Growth of hair follicles - elongation ± standard error [1, 11]: 0.34 ± 0.02 mm | Growth of hair follicles - elongation ± standard error [1, 12]: 0.53 ± 0.04 mm | Growth of hair follicles - elongation ± standard error [1, 13]: 0.65 ± 0.06 mm | Growth of hair follicles - elongation ± standard error [1, 14]: 0.82 ± 0.12 mm

C#CCN(C)[C@@H](C)Cc1ccccc1 [S-Selegiline]
Growth of hair follicles - elongation ± standard error [1, 5]: 0 mm | Growth of hair follicles - elongation ± standard error [1, 6]: 0.33 ± 0.02 mm | Growth of hair follicles - elongation ± standard error [1, 7]: 0.49 ± 0.02 mm | Growth of hair follicles - elongation ± standard error [1, 8]: 0.69 ± 0.03 mm | Growth of hair follicles - elongation ± standard error [1, 9]: 0.84 ± 0.06 mm | Growth of hair follicles - elongation ± standard error [1, 10]: 0 mm | Growth of hair follicles - elongation ± standard error [1, 11]: 0.35 ± 0.01 mm | Growth of hair follicles - elongation ± standard error [1, 12]: 0.55 ± 0.02 mm | Growth of hair follicles - elongation ± standard error [1, 13]: 0.70 ± 0.03 mm | Growth of hair follicles - elongation ± standard error [1, 14]: 0.75 ± 0.06 mm

Pargyline
Growth of hair follicles - elongation ± standard error ([1]; 0.01 mM, day 3 of cultivation, Table 1): 0.51 ± 0.03 mm | Growth of hair follicles - elongation ± standard error ([1]; 0.01 mM, day 5 of cultivation, Table 1): 0.80 ± 0.07 mm | Growth of hair follicles - elongation ± standard error ([1]; 0.01 mM, day 9 of cultivation, Table 1): 1.47 ± 0.15 mm | Growth of hair follicles - elongation ± standard error ([1]; 0.1 mM, day 1 of cultivation, Table 1): 0 mm | Growth of hair follicles - elongation ± standard error [1, 10]: 0 mm | Growth of hair follicles - elongation ± standard error ([1]; 0.1 mM, day 3 of cultivation, Table 1): 0.55 ± 0.04 mm | Growth of hair follicles - elongation ± standard error [1, 11]: 0.56 ± 0.02 mm | Growth of hair follicles - elongation ± standard error ([1]; 0.1 mM, day 5 of cultivation, Table 1): 0.91 ± 0.12 mm | Growth of hair follicles - elongation ± standard error [1, 12]: 0.78 ± 0.04 mm | Growth of hair follicles - elongation ± standard error ([1]; 0.1 mM, day 7 of cultivation, Table 1): 1.19 ± 0.17 mm | Growth of hair follicles - elongation ± standard error [1, 14]: 1.22 ± 0.08 mm | Growth of hair follicles - elongation ± standard error ([1]; 0.5 mM, day 3 of cultivation, Table 1): 0.55 ± 0.05 mm | Growth of hair follicles - elongation ± standard error ([1]; 0.5 mM, day 5 of cultivation, Table 1): 0.81 ± 0.11 mm | Growth of hair follicles - elongation ± standard error ([1]; 0.5 mM, day 9 of cultivation, Table 1): 1.17 ± 0.19 mm | Effect on growth of the hair follicles (in words) ([1]; 0.01 to 0.5 mM versus control, Table 1): significant increase in growth of the hair follicles | Effect on hair growth compared to other MAOI (in words) [1]: the only active species | Hair follicles in anagen phase ([2]; 0.01 mM): 78% | Hair follicles in catagen phase ([2]; 0.01 mM): 22% | Hair follicles in anagen phase ([2]; 0.1 mM): 67% | Hair follicles in catagen phase ([2]; 0.1 mM): 33% | Hair follicles in anagen phase ([2]; 0.5 mM): 56% | Hair follicles in catagen phase ([2]; 0.5 mM): 44% | Effect on decline in the catagen phase (in words) ([2]; 0.01 to 0.5 mM versus control): significantly delayed the decline in the catagen phase | Number of cells in apoptotic state ± standard error ([3]; 0.01 mM): 0.93% ± 0.37 | Number of cells in proliferative state ± standard error ([3]; 0.01 mM): 1.67% ± 0.4 | Number of cells in apoptotic state ± standard error ([3]; 0.1 mM): 0.95% ± 0.08 | Number of cells in proliferative state ± standard error ([3]; 0.1 mM): 2.89% ± 0.99 | Effect on number of apoptotic cells (in words) ([3]; versus control): only a marginal effect in increasing the number of apoptotic cells | Effect on number of cells in proliferative state (in words) ([3]; versus control): significantly increases the number of cells in an active, proliferative state | Growth of hair follicles - elongation ± standard error ([4]; 0.01 mM, day 1 of cultivation): 0 mm | Growth of hair follicles - elongation ± standard error ([4]; 0.1 mM, day 9 of cultivation): 1.60 ± 0.19 mm | Growth of hair follicles - elongation ± standard error ([4]; 0.5 mM, day 1 of cultivation): 0 mm
